Assay results: patent US12370181B2, “Regimens of estrogen receptor antagonists” (Olema Pharmaceuticals, Inc., priority 2019, dated 2025)

What was measured:
[1] = tested on: ligand-independent ER mutants; assay: AP activity in Ishikawa cells transiently transfected with ER variants; type: cell-based, human; settings: in the absence of E2; 3 days; FIGS. 5A-5F, 8A-8D
Experimental: (§1) The present Example describes studies in which certain estrogen receptor constructs were transfected into Ishikawa cells, which are a human endometrial cancer cell line, endogenous alkaline phosphatase is assayed. 15,000 Ishikawa cells per well were plated into a 96-well plate in […] containing 5% stripped FBS. At the time of plating, cells in each well were transiently transfected with 75-100 ng of an estrogen receptor construct (or empty vector, pSG5) using Lipofectamine LTX (ThermoFisher Scientific). Approximately 4 hours later, cells were treated with indicated amount of anti-estrogen (in the absence of E2), or 500 pM E2 (FIG. 9), and media was diluted to 2.5% stripped FBS. Cells were incubated for 3 days, media removed, and plates frozen at −80° C. […] After 40-80 minutes at 40° C., absorbance was read at 405 nm.

[2] = target: T1, endogenous wild type ER (Homo sapiens, UniProt P03372); assay: Alkaline phosphatase (AP) activity of endogenous wild type ER in un-transfected Ishikawa cells, agonist and antagonist mode; type: cell-based
T1 construct: AP activity of endogenous wild type ER in un-transfected Ishikawa cells; endogenous in cells; host or cells: Ishikawa cells (un-transfected)
T1 sequence (P03372 1-595): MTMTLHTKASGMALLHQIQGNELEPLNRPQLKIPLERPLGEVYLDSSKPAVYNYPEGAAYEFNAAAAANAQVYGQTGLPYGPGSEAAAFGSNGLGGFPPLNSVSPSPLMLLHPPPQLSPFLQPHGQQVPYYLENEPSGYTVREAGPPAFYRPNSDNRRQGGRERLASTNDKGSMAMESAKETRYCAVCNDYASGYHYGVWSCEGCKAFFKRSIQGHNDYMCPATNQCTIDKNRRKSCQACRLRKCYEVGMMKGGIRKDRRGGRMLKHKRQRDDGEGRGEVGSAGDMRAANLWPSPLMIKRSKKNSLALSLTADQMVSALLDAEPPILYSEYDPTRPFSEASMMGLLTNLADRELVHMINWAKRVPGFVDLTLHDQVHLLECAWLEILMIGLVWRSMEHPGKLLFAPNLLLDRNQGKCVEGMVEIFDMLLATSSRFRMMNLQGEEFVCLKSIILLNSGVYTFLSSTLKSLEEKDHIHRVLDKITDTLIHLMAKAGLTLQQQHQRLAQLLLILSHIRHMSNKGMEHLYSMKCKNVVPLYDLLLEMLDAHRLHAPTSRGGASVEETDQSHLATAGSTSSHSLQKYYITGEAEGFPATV
Experimental: as §1
AP activity of endogenous wild type ER in un-transfected Ishikawa cells was assayed as described above.

[3] = in vivo, po, 300 mg/kg

Row | SMILES | Inhibition of activity of ligand-independent ER mutants (AP activity) [1] | Agonist activity (ER activity, AP) ([2]; agonist mode: compound alone, no added estrogen, FIG. 1A) | Antagonist activity (ER activity, AP) ([2]; antagonist mode: in the presence of 500 pM 17β-estradiol (E2), FIG. 1B) | Blood brain barrier penetration [3]
1 | CC/C(=C(/c1ccc(/C=C/C(=O)O)cc1)c1ccc2[nH]ncc2c1)c1ccc(F)cc1Cl [ARN-810, Brilanestrant] | none of Endoxifen, RAD-1901, ARN-810 (GDC-0810) or AZD-9496 can inhibit activity of the ligand-independent ER variants |  |  | 
2 | C[C@@H]1Cc2c([nH]c3ccccc23)[C@@H](c2c(F)cc(/C=C/C(=O)O)cc2F)N1CC(C)(C)F [AZD-9496] | none of Endoxifen, RAD-1901, ARN-810 (GDC-0810) or AZD-9496 can inhibit activity of the ligand-independent ER variants | increases ER activity in the absence of added estrogen | reducing ER activity when estrogen is there | 
3 | C[C@]12CC[C@@H]3c4ccc(O)cc4C[C@@H](CCCCCCCCC[S+]([O-])CCCC(F)(F)C(F)(F)F)[C@H]3[C@@H]1CC[C@@H]2O (stereo partly drawn) [Fulvestrant] |  |  |  | unable to penetrate the blood-brain barrier in analogous quantities
4 | CCNCCc1ccc(CN(CC)c2cc(OC)ccc2[C@@H]2CCc3cc(O)ccc3C2)cc1 [RAD-1901, Elacestrant] | none of Endoxifen, RAD-1901, ARN-810 (GDC-0810) or AZD-9496 can inhibit activity of the ligand-independent ER variants |  |  | 
